Row | melting point [°C] | SMILES
1 | > 80 | CCN1c2ncccc2C(=O)N(C)c2ccc(-c3cc[nH]c3C(C)=O)nc21
2 | 224 to 226 | Cc1ccccc1C(=O)Nc1ccc(C(=O)N2CCCC(O)c3cc(Cl)ccc32)c(C)c1 (stereo unspecified)
3 | 129 to 132 | OC(c1ccc2c(c1)CCN2)(C(F)F)C(F)(F)F (stereo unspecified)
4 | 83 to 85 | COC[C@@H](N)C(=O)N(O)C(=O)OC(C)(C)C
5 | 174 | COc1ccc(-c2cccc(OC3SCC(O)C(O)C3O)c2)cn1 (stereo unspecified)
6 | 155 to 157 | O=C(O)C(Cl)(Cl)CCCCCCCCCCC#Cc1ccccc1
7 | 141 to 143 | CCNC(=O)c1cc(N(C)C)ccc1[Si](C)(C)C
8 | 157 to 158 | CCN(CC)CC(=O)Nc1ccc(C2=NN=C(C)Cc3cc4c(cc32)OCO4)cc1
9 | 231 to 233 | CCn1c([N+](=O)[O-])cnc1C=Cc1ccccc1
10 | 245 to 248 | COc1cccc(Cc2nc3n(-c4c(Cl)cc(Cl)cc4Cl)[nH]c(SC)c-3c(=O)n2)c1
11 | 175 to 182 | COc1ccc(C2CN(C(C)=O)C(=O)O2)cc1OC (stereo unspecified)
12 | 160 to 162 | Cc1noc(NS(=O)(=O)c2ccccc2-c2ncccn2)c1C
13 | 217 to 220 | O=c1[nH]c2ncc(-c3ccc4[nH]cnc4c3)nc2n1CC1CCCCC1
14 | 56 to 58 | CCOCC(=O)c1nc2c(Cl)cc(F)c(-n3c(=O)cc(C(F)(F)F)n(C)c3=O)c2o1
15 | 119 | COc1ccc2c(c1)c1c(n2CCBr)C(=O)CCC1
16 | 85 to 92 | Cc1ccc(-c2ccccc2C(=O)O)cc1C(=O)NCC12CC3CC(CC(C3)C1)C2
17 | 193 to 195 | Cc1nc(C#N)ccc1OC1SCC(O)C(O)C1O (stereo unspecified)
18 | 256 to 258 | Cc1cc2c(c(C(C)(C)C)c1)OCC(/C=C/C=C/C=C/C(=O)O)=C2
19 | 98 to 100 | Cc1ccc(-c2ccc3c(c2)C=CCCO3)cc1

Row | melting point [°C] | SMILES
20 | 167 to 171 | COc1ccc(C(=O)Nc2ccccc2)cc1NCc1cccc(C(F)(F)F)c1
21 | 169 to 170 | CCCc1cc2c(=O)[nH]c(C(=O)OCC)nc2s1
22 | 163 to 165 | COc1ccc(CNc2c3c(nc4ccccc24)CCCC3O)cc1 (stereo unspecified)
23 | 98 to 101 | Cc1nn(C)c(C2=NC(C)CN2)c1[N+](=O)[O-] (stereo unspecified)
24 | 236 to 238 | CCOc1ccccc1-c1ncc(C(N)=O)c(=O)[nH]1
25 | 200 to 204 | COc1ccc2c(c1)C(CC(=O)O)=C(C)C2=Cc1ccc(S(C)=O)cc1 (stereo unspecified)
26 | 30 to 32 | C=C(C)C(=O)NCC(OC)OC
27 | 108 to 109 | COC(=O)C1CCC(=O)c2c(-c3ccc(Cl)cc3)noc2C1 (stereo unspecified)
28 | 144 to 145 | CC(C)c1cccc(C(C)C)c1NC(=O)CNC(c1cccc(C(F)(F)F)c1)c1cccc(C(F)(F)F)c1
29 | 125 to 127 | C=C1OC(=NOC(C)=O)C(c2ccccc2)C(=O)N1C(C)(C)C(=O)Nc1cc(Cl)cc(Cl)c1 (stereo unspecified)
30 | 118 to 120 | CN1CCN(c2c(-c3ccccc3)sc3ccccc23)CC1
31 | 131 to 135 | O=[N+]([O-])c1cnccc1NCC(O)CO (stereo unspecified)
32 | 155 to 156 | N#Cc1ccc(Cc2nccc(-c3ccc(C#N)cc3)n2)cc1
33 | 103 to 104 | CC(C)c1c(O)ccc2cnc(Nc3ccccc3)nc12
34 | 249 to 251 | CCOP(=O)(CCOC(=O)c1c(I)c(NC(C)=O)c(I)c(NC(C)=O)c1I)OCC
35 | 111 | Cc1nnn(CC(I)=C(I)I)n1
36 | 83.8 | CCCCCc1ccc(-c2ccc(C(C)O)cc2)cc1 (single isomer, unassigned; (-))
37 | 148 to 150 | Cc1ccc(S(=O)(=O)N2CCC[C@H](C(C#N)(c3ccccc3)c3ccccc3)C2)cc1
38 | 113 to 114 | COC(=O)c1c(OC)cc(C=O)cc1OC

Row | SMILES | melting point [°C]
39 | N#CN=C1NCCN1Cc1cccnc1 | 126 to 128
40 | CC(=O)c1nc(C)n2c1CN=C(c1ccccc1Cl)c1cc(Cl)ccc1-2 | 234 to 236
41 | CCC(=O)N1N=C(c2ccc(N)c(C)c2)c2cc(Cl)ccc2C=C1C | 218 to 221

Reference: a melting point compilation (Tetko et al.; mined from patent text by program, amines drawn as free bases though some values may be those of a salt)
